From patent US7528141B2, “Use of cyclopenta[g]quinazoline derivatives for treating cancer” (BTG International Limited, priority 2001, dated 2009)
Values joined by “and” are separate entries in the source; they are usually repeats but may differ in a detail not shown here. Identical values can stand only once. Like-named read-outs stand apart in the source and are kept apart here.

Experiments:
[1] = target: T1, α-FR (Mus musculus, UniProt P35846); test: Binding to α-FR relative to folic acid, L1210-FBP cells; settings: L1210-FBP mouse tumor cells overexpressing α-FR; folic acid = 1
T1 construct: endogenous in cells; host or cells: mouse L1210-FBP cells
T1 sequence (P35846 25-232): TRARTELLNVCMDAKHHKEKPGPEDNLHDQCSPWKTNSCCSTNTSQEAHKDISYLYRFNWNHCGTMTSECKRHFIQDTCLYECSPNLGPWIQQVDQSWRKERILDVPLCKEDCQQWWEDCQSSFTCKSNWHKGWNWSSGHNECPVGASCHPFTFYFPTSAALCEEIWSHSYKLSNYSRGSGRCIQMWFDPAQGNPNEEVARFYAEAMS

[2] = system: A431 cells; test: Inhibition of cell growth, A431 cells; settings: for fold increased IC50 in presence of folic acid, A431: IC50 + 1 μM FA vs without FA
[3] = target: T2, reduced-folate carrier (RFC) (Mus musculus, UniProt P41438); test: Inhibition of 3H MTX uptake in L1210 cells; type: cell-based; settings: Inhibition of 3H MTX uptake Ki, L1210, mouse L1210 tumor cells; high Ki = low affinity for RFC
T2 construct: endogenous in cells; host or cells: L1210
T2 sequence (P41438 1-512): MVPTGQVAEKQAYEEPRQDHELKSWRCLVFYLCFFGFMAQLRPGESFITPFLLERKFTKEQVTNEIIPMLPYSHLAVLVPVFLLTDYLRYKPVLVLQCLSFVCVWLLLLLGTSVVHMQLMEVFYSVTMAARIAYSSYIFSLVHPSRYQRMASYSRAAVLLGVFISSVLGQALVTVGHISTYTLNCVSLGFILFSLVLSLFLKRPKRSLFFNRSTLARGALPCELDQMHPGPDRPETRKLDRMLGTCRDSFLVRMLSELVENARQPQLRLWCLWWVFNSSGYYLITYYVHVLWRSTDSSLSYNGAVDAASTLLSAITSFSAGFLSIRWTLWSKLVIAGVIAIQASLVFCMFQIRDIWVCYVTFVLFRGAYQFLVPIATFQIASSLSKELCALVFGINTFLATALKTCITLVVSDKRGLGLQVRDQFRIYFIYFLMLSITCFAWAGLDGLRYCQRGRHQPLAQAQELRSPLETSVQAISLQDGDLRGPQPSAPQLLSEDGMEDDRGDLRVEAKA

[4] = target: T3, thymidylate synthase (TS) from L1210 mouse leukaemia cells (Mus musculus, UniProt P07607); test: Inhibition of isolated L1210 thymidylate synthase; type: biochemical
T3 construct: obtained in partially purified form from L1210 mouse leukaemia cells; endogenous in cells; host or cells: L1210 mouse leukaemia cells (enzyme partially purified)
T3 sequence (P07607 whole entry): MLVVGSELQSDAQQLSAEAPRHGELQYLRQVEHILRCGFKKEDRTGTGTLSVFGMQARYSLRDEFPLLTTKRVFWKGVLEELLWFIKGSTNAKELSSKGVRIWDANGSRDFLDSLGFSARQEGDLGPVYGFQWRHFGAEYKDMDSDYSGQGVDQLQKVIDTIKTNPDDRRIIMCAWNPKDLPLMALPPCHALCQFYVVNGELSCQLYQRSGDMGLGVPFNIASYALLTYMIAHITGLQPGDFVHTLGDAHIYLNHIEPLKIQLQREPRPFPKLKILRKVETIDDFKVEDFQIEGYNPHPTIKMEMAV

[5] = system: KB cells; test: Inhibition of cell growth, KB cells; settings: for fold increased IC50 in presence of folic acid, KB: IC50 + 1 μM FA vs without FA;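 for all read-outs here: KB nasopharyngeal carcinoma cells express the α-folate receptor, and leucovorin at 20 nM was the folate source in the growth medium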
[6] = target: T4, α-FR (Homo sapiens, UniProt P15328); test: Binding to α-FR relative to folic acid, A431-FBP cells; settings: human A431 cells transfected with α-FR; folic acid = 1
T4 construct: expressed in transfected cells; host or cells: A431 (human vulvar carcinoma)
T4 sequence (P15328 25-234): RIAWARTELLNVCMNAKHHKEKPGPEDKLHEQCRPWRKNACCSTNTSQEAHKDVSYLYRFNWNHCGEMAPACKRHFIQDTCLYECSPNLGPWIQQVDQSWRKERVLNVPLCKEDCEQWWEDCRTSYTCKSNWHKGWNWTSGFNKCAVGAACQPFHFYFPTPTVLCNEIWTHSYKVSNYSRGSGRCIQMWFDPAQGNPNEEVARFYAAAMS

[7] = system: A431-FBP cells; test: Inhibition of cell growth, A431-FBP cells; settings: for fold increased sensitivity compared with A431, A431-FBP: A431 IC50 vs A431-FBP IC50; for fold increased IC50 in presence of folic acid, A431-FBP: IC50 + 1 μM FA vs without FA
[8] = target: T5, reduced-folate carrier (RFC) (Homo sapiens, UniProt P41440); test: Inhibition of 3H MTX uptake in W1L2 cells; type: cell-based; settings: Inhibition of 3H MTX uptake Ki, W1L2, human lymphoblastoid W1L2 cells; high Ki = low affinity for RFC
T5 construct: endogenous in cells; host or cells: W1L2
T5 sequence (P41440 1-591): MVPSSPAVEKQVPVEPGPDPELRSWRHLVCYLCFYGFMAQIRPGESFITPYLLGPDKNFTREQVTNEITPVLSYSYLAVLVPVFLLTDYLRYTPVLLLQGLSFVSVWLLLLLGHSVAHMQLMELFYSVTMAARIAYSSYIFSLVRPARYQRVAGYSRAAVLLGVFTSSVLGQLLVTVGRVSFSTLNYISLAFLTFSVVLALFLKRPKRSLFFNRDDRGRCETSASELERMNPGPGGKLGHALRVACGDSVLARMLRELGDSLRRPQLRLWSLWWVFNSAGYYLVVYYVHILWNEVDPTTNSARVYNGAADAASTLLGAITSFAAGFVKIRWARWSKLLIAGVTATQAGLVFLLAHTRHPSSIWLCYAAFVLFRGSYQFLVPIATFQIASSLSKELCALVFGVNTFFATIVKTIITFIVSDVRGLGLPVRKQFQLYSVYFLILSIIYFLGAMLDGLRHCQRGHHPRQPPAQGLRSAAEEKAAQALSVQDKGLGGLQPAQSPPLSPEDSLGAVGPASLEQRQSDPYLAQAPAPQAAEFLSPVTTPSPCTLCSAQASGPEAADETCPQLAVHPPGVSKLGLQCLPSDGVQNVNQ

[9] = Homo sapiens, A-431, read-out: Inhibition of cell growth, IC50, A431
[10] = read-out: Inhibition of cell growth, IC50, A431 + 1 μM FA, 20 nM LV, + 1 μM folic acid
[11] = read-out: Inhibition of isolated L1210 TS, Kiapp
[12] = Homo sapiens, KB, read-out: Inhibition of cell growth, IC50, KB, 20 nM LV
[13] = read-out: Inhibition of cell growth, IC50, KB + 1 μM FA, 20 nM LV, + 1 μM folic acid
[14] = Homo sapiens, read-out: Inhibition of cell growth, IC50, A431-FBP
[15] = read-out: Inhibition of cell growth, IC50, A431-FBP + 1 μM FA, 20 nM LV, + 1 μM folic acid
[16] = Inhibition of isolated L1210 TS, Kiapp

Structure (SMILES) | Inverse relative affinity for α-FR, L1210-FBP [1] | fold increased IC50 in presence of folic acid, A431 ([2]; 20 nM LV) | IC50 [2, 9] [nM] | IC50 [2, 10] [nM] | Ki [3] | Ki [4, 11] | fold increased IC50 in presence of folic acid, KB ([5]; 20 nM LV) | IC50 [5, 12] [nM] | IC50 [5, 13] [nM] | Inverse relative affinity for α-FR, A431-FBP [6] | fold increased sensitivity compared with A431, A431-FBP ([7]; 20 nM LV) | fold increased IC50 in presence of folic acid, A431-FBP ([7]; 20 nM LV) | IC50 [7, 14] [nM] | IC50 [7, 15] [nM] | Ki [8] | IC50 ([5]; read-out: Inhibition of cell growth, IC50, KB, 20 nM LV) [nM] | Ki [4, 16]
C#CCN(c1ccc(C(=O)N[C@@H](CCC(=O)N[C@H](CCC(=O)O)C(=O)O)C(=O)O)c(F)c1)C1CCc2cc3nc(C)[nH]c(=O)c3cc21 (mixture of isomers) [CB300947 (R, S), N-{N-{4-[N-((6RS)-2methyl-4-oxo-3,4,7,8-tetrahydro-6H-cyclopenta[g]-quinazolin-6-yl)-N-(prop-2-ynyl)amino]-2-fluorobenzoyl}-L-γ-glutamyl}-D-glutamic acid] | 0.73 ± 0.01 | (1) fold | 1400 ± 260 | 1200 ± 510 | > 250000 nM | 0.46 nM and 0.77 nM | (73) fold | 8 ± 1 | 580 ± 30 | 0.58 ± 0.017 | (150) fold | (100) fold | 9.4 ± 4 | 930 ± 210 | 97000 nM and 315000 nM |  | 
C#CCN(Cc1cc2c(=O)[nH]c(C)nc2cc1C)c1ccc(C(=O)N[C@@H](CCC(=O)O)C(=O)O)cc1 [CB3900, reference compound] | 0.30 ± 0.07 | (1) fold | 2200 ± 260 | 2600 ± 920 | 4300 nM and 4700 nM | 23 nM | (2) fold | 130 ± 6 | 310 ± 40 |  | (2) fold | (1) fold | 1400 ± 360 | 1500 ± 290 | 1300 nM |  | 
C#CCN(c1ccc(C(=O)N[C@@H](CCC(=O)N(C)[C@@H](CCC(=O)O)C(=O)O)C(=O)O)cc1)C1CCc2cc3nc(CO)[nH]c(=O)c3cc21 (mixture of isomers) [CB300960 (R, S), N-{N-{4-[N-((6RS)-2-hydroxymethyl-4-oxo-3,4,7,8-tetrahydro-6H-cyclopenta[g]quinazolin-6-yl)-N-(prop-2-ynyl)amino]benzoyl}-L-γ-glutamyl}-N-methyl-L-glutamic acid] |  | (1) fold | 4500 |  |  |  |  |  |  |  |  | (180) fold | 28 |  |  |  | 
C#CCN(Cc1ccc2nc(C)[nH]c(=O)c2c1)c1ccc(C(=O)N[C@@H](CCC(=O)O)C(=O)O)cc1 [ICI 198583, reference compound] |  |  | 24 ± 4 | 26 ± 3.8 | 2600 ± 60 nM |  |  | 2 ± 0.4 | 20 ± 2 |  |  |  | 12 ± 5 | 20 ± 4.6 | 1200 nM and 1000 nM |  | 
Cc1nc2ccc(CN(C)c3ccc(C(=O)N[C@@H](CCC(=O)O)C(=O)O)s3)cc2c(=O)[nH]1 [Raltitrexed, reference compound] |  |  | 3.4 ± 1.6 | 3.6 ± 1.6 | 2600 nM and 2300 nM | 510 nM |  | 1.1 ± 0.71 | 1.2 ± 0.59 |  |  |  | 0.79 ± 0.36 | 1.3 ± 0.7 |  |  | 
C#CCN(c1ccc(C(=O)N[C@@H](CCC(=O)O)C(=O)O)cc1)C1CCc2cc3nc(CO)[nH]c(=O)c3cc21 (stereo partly drawn) [CB300959 (R, S), reference compound] | 0.71 ± 0.012 | (1) fold | 4200 | 5800 |  | 12 nM | (11) fold | 420 |  | 0.57 ± 0.032 | (0.5) fold | (2) fold | 8800 | 18000 |  | 500 | 
C#CCN(c1ccc(C(=O)N[C@@H](CCC(=O)N[C@H](CCC(=O)O)C(=O)O)C(=O)O)cc1)C1CCc2cc3nc(CO)[nH]c(=O)c3cc21 (mixture of isomers) [CB300945 (R, S)] | 0.73 ± 0.06 | (1) fold | 9800 ± 3400 |  | > 250000 nM |  | (2100) fold | 3.4 ± 0.9 |  | 0.67 ± 0.11 | (4700) fold | (3100) fold | 2.1 ± 1.1 | 6500 ± 860 | > 250000 nM |  | 2.6 nM and 3.3 nM
C#CCN(c1ccc(C(=O)N[C@@H](CCC(=O)N[C@H](CCC(=O)O)C(=O)O)C(=O)O)cc1)[C@H]1CCc2cc3nc(C)[nH]c(=O)c3cc21 [CB300638 (S)] | 0.66 ± 0.08 | (1) fold | 810 ± 310 | 970 ± 580 | > 250000 nM | 0.33 ± 0.16 nM | (110) fold | 3.6 ± 1.5 | 390 ± 180 | 0.53 ± 0.07 | (270) fold | (160) fold | 3 ± 2.1 | 490 ± 170 | 115000 ± 12000 nM |  | 
C#CCN(c1ccc(C(=O)N[C@@H](CCC(=O)N[C@H](CCC(=O)O)c2nnn[nH]2)C(=O)O)cc1)[C@H]1CCc2cc3nc(C)[nH]c(=O)c3cc21 [CB300907 (S)] | 0.61 ± 0.07 | (1) fold | 1400 ± 820 | 1600 ± 1100 | 186000 ± 121000 nM | 0.16 nM and 0.17 nM | (79) fold | 6.2 ± 3 | 490 ± 140 | 0.58 ± 0.032 | (540) fold | (170) fold | 2.6 ± 1.8 | 430 ± 180 | 142000 ± 54000 nM |  | 
C#CCN(c1ccc(C(=O)N[C@@H](CCC(=O)N[C@H](CCC(=O)O)C(=O)O)C(=O)O)cc1)[C@H]1CCc2cc3nc(CO)[nH]c(=O)c3cc21 [CB300945 (S)] | 0.70 ± 0.015 | (1) fold | 7000 | 6500 |  |  | (1800) fold | 2.7 ± 1.5 | 4800 ± 750 | 0.69 ± 0.05 | (4700) fold | (4300) fold | 1.5 | 6400 |  |  | 1.9 nM
C#CCN(Cc1ccc2nc(N)[nH]c(=O)c2c1)c1ccc(C(=O)N[C@@H](CCC(=O)O)C(=O)O)cc1 [CB3717, reference compound] |  |  | 1200 ± 630 | 1400 ± 560 | 46000 ± 17000 nM |  |  |  |  |  |  |  | 260 ± 120 | 450 ± 140 |  |  | 
